This note sets out measurements from PubChem BioAssay (NCI).

Several values for one entry are separate records, joined by “and”; a condition that tells them apart may be missing. Identical values can stand only once.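 Test compounds were applied to cells in 96-well plates for 48 hours at 5 doses. Abbreviation: GI50, concentration required for 50% inhibition of growth. Definition used: TGI = concentration required for complete inhibition of growth.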

Holding throughout (experiment): NCI tumour cell line growth inhibition, 48 h
Assay [1] has as its system CAKI-1 renal.
Assay [2] relates to NCI-H23 lung.
In assay [3] the test system is T-47D breast.
Assay [4] concerns RXF 393 renal.
The subject of assay [5] is TK-10 renal.
The test system of assay [6] is HCC-2998 colon.
Assay [7] deals with 786-0 renal.
For assay [8], the system named is HOP-92 NSCLC.
For assay [9], the system named is UO-31 renal.
Assay [10] has as its system HL-60(TB) leukemia.

In the case of `O=c1c2[nH]c3ccccc3c2nc2n1CCS2`, the GI50 in assay [1] is 38.7 µM; in assay [2], > 100 µM; in assay [3], > 100 µM; in [4] it was > 100 µM; in assay [5], > 100 µM; in assay [6], > 100 µM. Moreover, the GI50 in assay [7] was > 100 µM; in [8], 4.25 µM; in [9], 47.2 µM; in [10], 17.5 µM. The TGI in [1], in [2], in assay [3], in assay [4], in assay [5] and in [6] was > 100 µM each time. Further, the TGI in assay [7], in assay [8], in assay [9] and in assay [10] was > 100 µM throughout.
With `COc1cccc2c1nc1cccc(OC)c1[n+]2[O-]`, the GI50 was 2.44 µM in assay [1]; 2.56 µM in [2]; 1.7 µM in [3]; 4.36 µM in [4]; 16.3 µM in [5]; 1.5 µM in [6]. In addition, the GI50 is 3.61 µM in [7], 2.71 µM in assay [8], 3.07 µM in assay [9] and 2.52 µM in [10]. The TGI came to 10.4 µM in assay [1]; 18.9 µM in [2]; 9.26 µM in assay [3]; 22.1 µM in [4]; 47.6 µM in assay [5]; 6.98 µM in assay [6]. In addition, the TGI in [7] stood at 15 µM; in assay [8], 9.28 µM; in assay [9], 15.6 µM; in assay [10], 5.94 µM.
For `O=C1c2ccc3c4c(ccc(c24)C(=O)N1CCCNCc1ccccc1)C(=O)N(CCCNCc1ccccc1)C3=O`, the GI50 was 0.21 µM in assay [1]; 0.18 µM in assay [2]; 0.192 µM in [3]; 0.135 µM in [4]; 0.119 µM in assay [5]; 0.154 µM in assay [6]. Also, the GI50 was 0.251 µM in [7], 0.199 µM in [8], 0.148 µM in assay [9] and 0.163 µM in assay [10]. Moreover, the TGI in [1] amounted to 0.588 µM; in assay [2] it was 0.42 µM; in assay [3], 0.429 µM; in [4], 0.27 µM; in [5] it was 0.413 µM; in [6], 0.303 µM. The TGI in assay [7] is 0.837 µM; in assay [8] it was 0.585 µM; in [9], 0.364 µM; in assay [10] it was 0.412 µM.
With `CCCCCCCCCCCCOC1C(CNCC2OC3OC(C)(C)OC3C2NC(=O)Nc2ccc(C(F)(F)F)cc2)OC2OC(C)(C)OC21` (stereo unspecified), the GI50 in assay [1] was 7.41 µM; in assay [2] it was 8.78 µM; in [3], 7.31 µM; in assay [4], 3.37 µM; in [5], 3.39 µM; in [6] it was 3.05 µM. In addition, the GI50 is 7.62 µM in assay [7], 7.4 µM in assay [8], 7.33 µM in assay [9] and 0.0134 µM in [10]. Further, the TGI in assay [1] came out at 15.1 µM; in assay [2] it was 19 µM; in assay [3], 16.9 µM; in assay [4] it was 8.99 µM; in assay [5], 7.86 µM; in assay [6], 5.88 µM. The TGI in assay [7] was 14.4 µM; in assay [8], 14.4 µM; in [9], 16.3 µM; in [10], 0.364 µM.
Take `CN(C)CCNC(=O)c1cccc2cc([N+](=O)[O-])ccc12`: the TGI in assay [1] is 16.4 µM; in assay [2], 6.68 µM and 0.758 µM; in [3], 16.3 µM; in assay [4], 0.471 µM; in assay [5], 4.74 µM and 0.591 µM; in assay [6], 3.74 µM and 0.986 µM. Besides, the TGI in assay [7] is 8.14 µM and 3.53 µM; in assay [8], 1.34 µM; in assay [9], 4.6 µM and 1 µM; in [10] it was 3.02 µM and 0.541 µM. The GI50 in [2] is 1.69 µM and 0.211 µM; in assay [5] it was 0.816 µM and 0.155 µM; in assay [6], 1.54 µM and 0.213 µM; in [7], 1.62 µM and 0.254 µM; in assay [9], 1.28 µM and 0.168 µM; in assay [10], 0.608 µM and 0.175 µM.
With `Cc1ccc(Nc2[nH]c(C(=O)c3ccc(Cl)cc3)c(N)c2C(=S)Nc2ccccc2)nc1`, the GI50 in assay [1] is 25.3 µM; in assay [2], 35.1 µM; in assay [3], 29.8 µM; in [4], 35.9 µM; in [5], 28.1 µM; in [6], 15.9 µM. Also, the GI50 is 35.7 µM in assay [7], 29.5 µM in assay [8], 24.3 µM in assay [9] and 63.3 µM in assay [10]. In addition, the TGI in assay [1] was 76.4 µM; in assay [2] it was > 100 µM; in assay [3], > 100 µM; in assay [4], > 100 µM; in assay [5], > 100 µM; in assay [6], 33.2 µM. Further, the TGI in assay [7] is > 100 µM; in assay [8], > 100 µM; in assay [9] it was 86.1 µM; in assay [10], > 100 µM.
Regarding `COc1cc(-c2nc3ccccc3[nH]2)ccc1OCC(=O)N=Nc1c(O)[nH]c2ccc(Cl)cc12`, the GI50 was 1.81 µM in assay [1]; 1.73 µM in assay [2]; 1.66 µM in assay [3]; 1.8 µM in assay [4]; 2.58 µM in assay [5]; 1.32 µM in assay [6]. For the same compound, the GI50 in assay [7] is 1.84 µM; in assay [8], 1.5 µM; in assay [9] it was 52.3 µM; in [10], 1.93 µM. Further, the TGI turned out to be 3.55 µM in [1]; 3.48 µM in assay [2]; 3.75 µM in assay [3]; 3.48 µM in assay [4]; 5.77 µM in [5]; 2.8 µM in [6]. Besides, the TGI in assay [7] was 3.53 µM; in assay [8], 3.07 µM; in assay [9], > 100 µM; in [10], 4.42 µM.
